Reference: patent US20130096067A1, “DROSOPHILA TUMOR STEM CELL MODEL AND USES THEREOF” (priority 2011, published 2013)
Where a name gives a salt, the structure may show the parent alone.

System: Raf-1^gof intestinal tumors
Assay: Luciferase screen of FDA-approved (NCI) drugs in 96-well plates, flies with Raf-1^gof intestinal tumors; as to Avg (3 + 6): test concentration or dose not given here; as to Log2 (fold): test concentration or dose not given here
Format: in vivo, Drosophila
[1] = average of Day 3 and Day 6 fold
[2] = log2 of the Day 3 fold difference in luciferase relative to DMSO controls
[3] = luciferase activity relative to DMSO controls, single dose of drug for three days, 96-well plates
[4] = six-day protocol: single dose for three days, then another dose for three more days

SMILES	Avg (3 + 6) [1] [fold]	Log2 (fold) [2]	Day 3 Fold [3] [fold]	Day 6 Fold [4] [fold]	Day 3 Fold (po, 72 h) [fold]	Log2 (fold) (po, 72 h)	Avg (3 + 6) (in vivo) [fold]	Day 3 Fold (in vivo) [fold]	Day 6 Fold (in vivo) [fold]	Log2 (fold) (in vivo)
CCN(CC)CCCC(C)Nc1c2ccc(Cl)cc2nc2ccc(OC)cc12 (stereo not shown) [Acrichine]	1.046	−0.212	0.863	1.229						
Oc1ncnc2[nH]ncc12 [Allopurinol]	1.997	1.281	2.430	1.565						
CN(C)c1nc(N(C)C)nc(N(C)C)n1 [Altretamine]	0.611	−0.625	0.649	0.574						
NCCCNCCSP(=O)(O)O [Amifostine]	1.239	0.248	1.187	1.291						
NCC(=O)CCC(=O)O [Aminolevulinic acid]	0.897	−0.016	0.989	0.805						
CC(C)(C#N)c1cc(Cn2cncn2)cc(C(C)(C)C#N)c1 [Anastrozole]	1.000	−0.053	0.964	1.036						
Nc1ncn([C@@H]2O[C@H](CO)[C@@H](O)[C@H]2O)c(=O)n1 [Azacitidine]	1.045	0.157	1.115	0.976						
CS(=O)(=O)OCCCCOS(C)(=O)=O [Busulfan]	0.936	0.166	1.122	0.750						
CCCCCOC(=O)Nc1nc(=O)n([C@@H]2O[C@H](C)[C@@H](O)[C@H]2O)cc1F [Capecitabine]	1.017	−0.078	0.947	1.087						
N.N.O=C([O-])C1(C(=O)[O-])CCC1.[Pt+2] [Carboplatin]	1.159	0.059	1.042	1.276						
O=NN(CCCl)C(=O)NCCCl [Carmustine]	0.496				0.565	−0.823				
Cc1ccc(-c2cc(C(F)(F)F)nn2-c2ccc(S(N)(=O)=O)cc2)cc1 [Celecoxib]	0.755	−0.565	0.676	0.834						
O=C(O)CCCc1ccc(N(CCCl)CCCl)cc1 [Chlorambucil]	1.022	0.175	1.129	0.915						
N.N.[Cl][Pt][Cl] [Cisplatin]	1.113	0.145	1.106	1.120						
Nc1nc(Cl)nc2c1ncn2[C@H]1C[C@H](O)[C@@H](CO)O1 [Cladribine]	0.852	0.072	1.051	0.652						
Nc1nc(Cl)nc2c1ncn2[C@@H]1O[C@H](CO)[C@@H](O)[C@@H]1F [Clofarabine]	0.868	−0.164	0.893	0.843						
O=P1(N(CCCl)CCCl)NCCCO1 (stereo not shown) [Cyclophosphamide]							0.857	0.982	0.732	−0.025
Nc1ccn([C@@H]2O[C@H](CO)[C@@H](O)[C@@H]2O)c(=O)n1 [Cytarabine HCl]	1.112	0.100	1.072	1.153						

SMILES	Avg (3 + 6) [1] [fold]	Log2 (fold) [2]	Day 3 Fold [3] [fold]	Day 6 Fold [4] [fold]	Day 3 Fold (po, 72 h) [fold]	Log2 (fold) (po, 72 h)	Avg (3 + 6) (in vivo) [fold]	Day 3 Fold (in vivo) [fold]	Day 6 Fold (in vivo) [fold]	Log2 (fold) (in vivo)
CN(C)/N=N/c1[nH]cnc1C(N)=O [Dacarbazine]	0.960	−0.010	0.993	0.927						
Cc1nc(Nc2ncc(C(=O)Nc3c(C)cccc3Cl)s2)cc(N2CCN(CCO)CC2)n1 [Dasatinib]	1.085	0.521	1.435	0.736						
COc1cccc2c1C(=O)c1c(O)c3c(c(O)c1C2=O)C[C@@](O)(C(C)=O)C[C@@H]3O[C@H]1C[C@H](N)[C@H](O)[C@H](C)O1 [Daunorubicin HCl]	0.227	−1.484	0.358	0.096						
Nc1ncn([C@H]2C[C@H](O)[C@@H](CO)O2)c(=O)n1 [Decitabine]	0.569	−1.077	0.474	0.663						
C[C@@H](CN1CC(=O)NC(=O)C1)N1CC(=O)NC(=O)C1 [Dexrazoxone]	0.599	−0.428	0.743	0.454						
CC(=O)O[C@@]12CO[C@@H]1C[C@H](O)[C@@]1(C)C(=O)[C@H](O)C3=C(C)[C@@H](OC(=O)[C@H](O)[C@@H](NC(=O)OC(C)(C)C)c4ccccc4)C[C@@](O)([C@@H](OC(=O)c4ccccc4)[C@H]21)C3(C)C [Docetaxel]	0.514	−0.887	0.541	0.487						
COc1cccc2c1C(=O)c1c(O)c3c(c(O)c1C2=O)C[C@@](O)(C(=O)CO)C[C@@H]3O[C@H]1C[C@H](N)[C@H](O)[C@H](C)O1 [Doxorubicin HCl]	1.084	−0.090	0.939	1.228						
C#Cc1cccc(Nc2ncnc3cc(OCCOC)c(OCCOC)cc23)c1 [Erlotinib HCl]							0.986	1.030	0.942	0.042
C=C1C[C@@H]2[C@H](CC[C@]3(C)C(=O)CC[C@@H]23)[C@@]2(C)C=CC(=O)C=C12 [Exemestane]	0.739	−0.246	0.843	0.634						
O=c1[nH]c(=O)n([C@H]2C[C@H](O)[C@@H](CO)O2)cc1F [Floxuridine]	0.149	−2.204	0.217	0.080						
Nc1nc(F)nc2c1ncn2[C@@H]1O[C@H](CO)[C@@H](O)[C@@H]1O [Fludarabine]	1.191				1.192	0.253				
O=c1[nH]cc(F)c(=O)[nH]1 [Fluorouracil]	0.770	−0.448	0.733	0.806						
C[C@]12CC[C@@H]3c4ccc(O)cc4C[C@@H](CCCCCCCCC[S+]([O-])CCCC(F)(F)C(F)(F)F)[C@H]3[C@@H]1CC[C@@H]2O (stereo partly shown) [Fulvestrant]	1.172	−0.221	0.858	1.486						
COc1cc2ncnc(Nc3ccc(F)c(Cl)c3)c2cc1OCCCN1CCOCC1 [Gefitinib]							0.886			
Nc1ccn([C@@H]2O[C@H](CO)[C@@H](O)C2(F)F)c(=O)n1 [Gemcitabine HCl]	0.104	−2.666	0.158	0.051						
NC(=O)NO [Hydroxyurea]	0.990	−0.184	0.880	1.099						
O=P1(NCCCl)OCCCN1CCCl (stereo not shown) [Ifosfamide]	1.004	−0.026	0.982	1.026						
Cc1ccc(NC(=O)c2ccc(CN3CCN(C)CC3)cc2)cc1Nc1nccc(-c2cccnc2)n1 [Imatinib]	0.674	−0.558	0.679	0.670						
